{
  "source": "patent US11246476B2",
  "about": "“Method for visualizing tissue with an ICG dye composition during ablation procedures” (CardioFocus, Inc., priority 2014, dated 2022)",
  "origin": "cited, not measured here",
  "key": {"[1]": {"details": "after injection into the patient's arm (e.g., through an IV)"}, "[2]": {"details": "in vivo"}},
  "data": [
    {"compound": "CC1(C)C(/C=C/C=C/C=C/C=C2\\N(CCCCS(=O)(=O)[O-])c3ccc4ccccc4c3C2(C)C)=[N+](CCCCS(=O)(=O)[O-])c2ccc3ccccc3c21.[Na+]", "note": "[ICG, Indocyanine green]", "values": [
      {"measurement": "binding to plasma proteins", "setting": "plasma proteins", "value": "binds tightly to plasma proteins"},
      {"measurement": "time to travel through the bloodstream to the target tissue", "setting": "[1]", "value": "less than 1 minute"},
      {"measurement": "route of removal from circulation", "setting": "[2]", "value": "removed from circulation exclusively by the liver to bile juice"}
    ]}
  ]
}
